Laboratory results as given in US10065971B2 (priority 2014, dated 2018).
Where a name gives a salt, the structure may show the parent alone.

Target: human σ1 receptor (Homo sapiens, UniProt Q99720)
Assay: biochemical
Design: μ and σ1 dual binding: scale not given here
Conditions: combined class from Ki at human σ1 receptor (A1) and Ki at human μ-opioid receptor (A2), radioligand binding; for Ki: read-out: μ and σ1 dual binding
Experimental: Biological Activity Pharmacological Study Human σ1 Receptor Radioligand Assay
The assay was carried out with 7 μg of membrane suspension, 5 nM of [^3H](+)-pentazocine in either absence or presence of either buffer or 10 μM Haloperidol for total and non-specific binding, respectively. Binding buffer contained Tris-HCl 50 mM at pH 8. Plates were incubated at 37° C. for 120 minutes. After the incubation period, the reaction mix was then transferred to MultiScreen HTS, FC plates (Millipore), filtered and plates were washed 3 times with ice-cold 10 mM Tris-HCL (pH7.4). Filters were dried and counted at approximately 40% efficiency in a MicroBeta scintillation counter (Perkin-Elmer) using EcoScint liquid scintillation cocktail

Chain of human σ1 receptor (Q99720 whole entry): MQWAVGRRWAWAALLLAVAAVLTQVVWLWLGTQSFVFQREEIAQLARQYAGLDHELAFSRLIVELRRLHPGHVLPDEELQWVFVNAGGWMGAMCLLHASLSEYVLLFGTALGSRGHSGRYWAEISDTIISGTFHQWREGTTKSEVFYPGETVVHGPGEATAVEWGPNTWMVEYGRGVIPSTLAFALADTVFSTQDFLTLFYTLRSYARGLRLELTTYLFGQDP

| Ki [nM] | SMILES | μ and σ1 dual binding |
| --- | --- | --- |
| – | Cl.O=C(Cc1ccccc1)N1CCOC2(CCN(CCc3ccccc3)CC2)C1 [Example 4, 1-(9-phenethyl-1-oxa-4,9-diazaspiro[5.5]undecan-4-yl)-2-phenylethanone hydrochloride] | ++ |
| – | Cl.O=C(c1cccnc1)N1CCOC2(CCN(CCc3ccccc3)CC2)C1 [Example 5, (9-phenethyl-1-oxa-4,9-diazaspiro[5.5]undecan-4-yl)(pyridin-3-yl)methanone hydrochloride] | ++ |
| – | O=C(c1cscn1)N1CCOC2(CCN(CCc3ccccc3)CC2)C1 [Example 12, (9-phenethyl-1-oxa-4,9-diazaspiro[5.5]undecan-4-yl)(thiazol-4-yl)methanone] | ++ |
| – | Cl.O=C(c1nccs1)N1CCOC2(CCN(CCc3ccccc3)CC2)C1 [Example 13, (9-phenethyl-1-oxa-4,9-diazaspiro[5.5]undecan-4-yl)(thiazol-2-yl)methanone hydrochloride] | ++ |
| – | Cl.O=C(c1cncs1)N1CCOC2(CCN(CCc3ccccc3)CC2)C1 [Example 14, (9-phenethyl-1-oxa-4,9-diazaspiro[5.5]undecan-4-yl)(thiazol-5-yl)methanone hydrochloride] | ++ |
| – | Cl.O=C(Cc1cccnc1)N1CCOC2(CCN(CCc3ccccc3)CC2)C1 [Example 15, 1-(9-phenethyl-1-oxa-4,9-diazaspiro[5.5]undecan-4-yl)-2-(pyridin-3-yl)ethanone hydrochloride] | ++ |
| – | Cl.O=C(CC1CCOCC1)N1CCOC2(CCN(CCc3ccccc3)CC2)C1 [Example 16, 1-(9-phenethyl-1-oxa-4,9-diazaspiro[5.5]undecan-4-yl)-2-(tetrahydro-2H-pyran-4-yl)ethanone hydrochloride] | ++ |
| > 500 | O=C(C1CCOCC1)N1CCOC2(CCN(CCc3ccccc3)CC2)C1 [Example 18, (9-phenethyl-1-oxa-4,9-diazaspiro[5.5]undecan-4-yl)(tetrahydro-2H-pyran-4-yl)methanone] | – |
| – | Cl.O=C(Cc1ccccn1)N1CCOC2(CCN(CCc3ccccc3)CC2)C1 [Example 19, 1-(9-phenethyl-1-oxa-4,9-diazaspiro[5.5]undecan-4-yl)-2-(pyridin-2-yl)ethanone hydrochloride] | ++ |
| – | Cl.O=C(CC1CC1)N1CCOC2(CCN(CCc3ccccc3)CC2)C1 [Example 20, 2-cyclopropyl-1-(9-phenethyl-1-oxa-4,9-diazaspiro[5.5]undecan-4-yl)ethanone hydrochloride] | ++ |
| – | Cl.O=C(c1ncccc1F)N1CCOC2(CCN(CCc3ccccc3)CC2)C1 [Example 25, (3-fluoropyridin-2-yl)(9-phenethyl-1-oxa-4,9-diazaspiro[5.5]undecan-4-yl)methanone hydrochloride] | ++ |
| – | Cl.O=C(c1cncc(F)c1)N1CCOC2(CCN(CCc3ccccc3)CC2)C1 [Example 26, (5-fluoropyridin-3-yl)(9-phenethyl-1-oxa-4,9-diazaspiro[5.5]undecan-4-yl)methanone hydrochloride] | ++ |
| – | CC1CN(C(=O)c2ncccc2F)CC2(CCN(CCc3ccccc3)CC2)O1.Cl (stereo not shown) [Example 32, (3-fluoropyridin-2-yl)(2-methyl-9-phenethyl-1-oxa-4,9-diazaspiro[5.5]undecan-4-yl)methanone hydrochloride] | ++ |
| – | CC1CN(C(=O)c2cncc(C(F)(F)F)c2)CC2(CCN(CCc3ccccc3)CC2)O1.Cl (stereo not shown) [Example 36, (2-methyl-9-phenethyl-1-oxa-4,9-diazaspiro[5.5]undecan-4-yl)(5-(trifluoromethyl)pyridin-3-yl)methanone hydrochloride] | ++ |
| – | CC1CN(C(=O)c2ccccc2)CC2(CCN(CCc3cccc(C(F)(F)F)n3)CC2)O1 (stereo not shown) [Example 38, (2-methyl-9-(2-(6-(trifluoromethyl)pyridin-2-yl)ethyl)-1-oxa-4,9-diazaspiro[5.5]undecan-4-yl)(phenyl)methanone dihydrochloride] | ++ |
| – | CC1CN(C(=O)c2ccccc2)CC2(CCN(CCc3ncccc3C(F)(F)F)CC2)O1.Cl (stereo not shown) [Example 41, (2-methyl-9-(2-(3-(trifluoromethyl)pyridin-2-yl)ethyl)-1-oxa-4,9-diazaspiro[5.5]undecan-4-yl)(phenyl)methanone hydrochloride] | ++ |
| – | CC1CN(C(=O)c2ccccc2)CC2(CCN(CCc3ccc(C(F)(F)F)cn3)CC2)O1.Cl (stereo not shown) [Example 42, (2-methyl-9-(2-(5-(trifluoromethyl)pyridin-2-yl)ethyl)-1-oxa-4,9-diazaspiro[5.5]undecan-4-yl)(phenyl)methanone hydrochloride] | ++ |

| Ki [nM] | SMILES | μ and σ1 dual binding |
| --- | --- | --- |
| – | CC1CN(C(=O)c2ccccn2)CC2(CCN(CCc3ncccc3Cl)CC2)O1.Cl (stereo not shown) [Example 48, (9-(2-(3-chloropyridin-2-yl)ethyl)-2-methyl-1-oxa-4,9-diazaspiro[5.5]undecan-4-yl)(pyridin-2-yl)methanone hydrochloride] | ++ |
| > 500 | CC1CN(C(=O)c2ccccc2F)CC2(CCN(CCc3ncccc3F)CC2)O1 (stereo not shown) [Example 59, (2-fluorophenyl)(9-(2-(3-fluoropyridin-2-yl)ethyl)-2-methyl-1-oxa-4,9-diazaspiro[5.5]undecan-4-yl)methanone dihydrochloride] | – |
| – | Cl.O=C(c1ccccc1)N1CCOC2(CCN(CCc3ccccn3)CC2)C1 [Example 63, phenyl(9-(2-(pyridin-2-yl)ethyl)-1-oxa-4,9-diazaspiro[5.5]undecan-4-yl)methanone hydrochloride] | ++ |
| – | Cl.O=C(c1ccccc1)N1CCOC2(CCN(CCc3ccc(C(F)(F)F)nc3)CC2)C1 [Example 70, phenyl(9-(2-(6-(trifluoromethyl)pyridin-3-yl)ethyl)-1-oxa-4,9-diazaspiro[5.5]undecan-4-yl)methanone hydrochloride] | ++ |
| > 500 | O=C(c1ccccc1)N1CCOC2(CCN(CCc3cccnc3)CC2)C1 [Example 71, phenyl(9-(2-(pyridin-3-yl)ethyl)-1-oxa-4,9-diazaspiro[5.5]undecan-4-yl)methanone dihydrochloride] | – |
| > 500 | CC1CN(C(=O)c2ccccc2)CC2(CCN(CCc3ccc(S(N)(=O)=O)cc3)CC2)O1 (stereo not shown) [Example 75, 4-(2-(4-benzoyl-2-methyl-1-oxa-4,9-diazaspiro[5.5]undecan-9-yl)ethyl)benzene-sulfonamide] | – |
| > 500 | CC1CN(C(=O)c2ccc(Cl)cn2)CC2(CCN(CCc3csc(NC(=O)OC(C)(C)C)n3)CC2)O1 (stereo not shown) [Example 78, tert-butyl (4-(2-(4-(5-chloropicolinoyl)-2-methyl-1-oxa-4,9-diazaspiro[5.5]undecan-9-yl)ethyl)thiazol-2-yl)carbamate] | – |
| > 500 | CC1CN(C(=O)c2ccccc2)CC2(CCN(CCc3csc(NC(=O)OC(C)(C)C)n3)CC2)O1 (stereo not shown) [Example 79, tert-butyl (4-(2-(4-benzoyl-2-methyl-1-oxa-4,9-diazaspiro[5.5]undecan-9-yl)ethyl)thiazol-2-yl)carbamate] | – |
| – | CC1CN(C(=O)c2ccccn2)CC2(CCN(CCc3cccc(OC(F)(F)F)c3)CC2)O1 (stereo not shown) [Example 80, (2-methyl-9-(3-(trifluoromethoxy)phenethyl)-1-oxa-4,9-diazaspiro[5.5]undecan-4-yl)(pyridin-2-yl)methanone dihydrochloride] | ++ |
| – | Cl.O=S(=O)(c1ccccc1)N1CCOC2(CCN(CCc3ccccc3)CC2)C1 [Example 83, 9-phenethyl-4-(phenylsulfonyl)-1-oxa-4,9-diazaspiro[5.5]undecane hydrochloride] | ++ |
| > 500 | CC(C)CCN1CCC2(CC1)CN(C(=O)c1ccccc1)CC(C)O2 (stereo not shown) [Example 86, (9-isopentyl-2-methyl-1-oxa-4,9-diazaspiro[5.5]undecan-4-yl)(phenyl)methanone hydrochloride] | – |
| – | CC1CN(C(=O)c2ccccc2)CC2(CCN(CCc3ccccn3)CC2)O1.Cl (stereo not shown) [Example 87, (2-methyl-9-(2-(pyridin-2-yl)ethyl)-1-oxa-4,9-diazaspiro[5.5]undecan-4-yl)(phenyl)methanone hydrochloride] | ++ |
| > 500 | CC(C)OCCN1CCC2(CC1)CN(C(=O)c1ccccc1)CC(C)O2 (stereo not shown) [Example 88, (9-(2-isopropoxyethyl)-2-methyl-1-oxa-4,9-diazaspiro[5.5]undecan-4-yl)(phenyl)methanone hydrochloride] | – |
| > 500 | CC1CN(C(=O)c2ccccc2)CC2(CCN(CC(=O)N3CCOCC3)CC2)O1 (stereo not shown) [Example 89, 2-(4-benzoyl-2-methyl-1-oxa-4,9-diazaspiro[5.5]undecan-9-yl)-1-morpholinoethanone hydrochloride] | – |
| > 500 | CC1CN(C(=O)c2ccccc2)CC2(CCN(CC(=O)N3CCCCC3)CC2)O1 (stereo not shown) [Example 90, 2-(4-benzoyl-2-methyl-1-oxa-4,9-diazaspiro[5.5]undecan-9-yl)-1-(piperidin-1-yl)ethanone hydrochloride] | – |
| – | CCC(=O)N1CC(C)OC2(CCN(CCc3ccccc3F)CC2)C1.Cl (stereo not shown) [Example 91, 1-(9-(2-fluorophenethyl)-2-methyl-1-oxa-4,9-diazaspiro[5.5]undecan-4-yl)propan-1-one hydrochloride] | ++ |
| > 500 | O=C(c1ccccc1)N1CCOC2(CCN(CCc3cccc([N+](=O)[O-])c3)CC2)C1 [Example 97, (9-(3-nitrophenethyl)-1-oxa-4,9-diazaspiro[5.5]undecan-4-yl)(phenyl)methanone] | – |
